The source made the active and inactive calls. No cut-off for these calls is given here.
Experiments:
[1] = tested on: Mus musculus; assay: Anticonvulsant activity in CF1 mouse assessed as inhibition of maximal electroshock-induced seizures at 30 mg/kg, ip after 0.5 hrs; format: functional, organism-based; design: dose 30 mg/kg
[2] = tested on: Mus musculus; assay: Neurotoxicity in CF1 mouse at 100 mg/kg, ip after 4 hrs by rotarod test; format: toxicity, organism-based; design: dose 100 mg/kg, route intraperitoneal; details: in vivo
[3] = tested on: Mus musculus; assay: Anticonvulsant activity in CF1 mouse assessed as inhibition of maximal electroshock-induced seizures at 100 mg/kg, ip after 4 hrs; format: functional, organism-based; design: dose 100 mg/kg
[4] = tested on: Mus musculus; assay: Anticonvulsant activity in CF1 mouse assessed as inhibition of maximal electroshock-induced seizures at 300 mg/kg, ip after 4 hrs; format: functional, organism-based; design: dose 300 mg/kg
[5] = tested on: Mus musculus; assay: Anticonvulsant activity in CF1 mouse assessed as inhibition of maximal electroshock-induced seizures at 300 mg/kg, ip after 0.5 hrs; format: functional, organism-based; design: dose 300 mg/kg
[6] = tested on: Mus musculus; assay: Neurotoxicity in CF1 mouse at 30 mg/kg, ip after 0.5 hrs by rotarod test; format: toxicity, organism-based; design: dose 30 mg/kg, route intraperitoneal; details: in vivo
[7] = tested on: Rattus norvegicus; assay: Antiarrhythmic activity in anaesthetized iv dosed Wistar rat assessed as decrease in adrenaline-induced cardiac rhythm disturbance administered 15 mins before adrenaline challenge; format: functional; details: Heart
[8] = biological target: T1, Adrenergic receptor alpha-1 (Rattus norvegicus, UniProt P15823+P23944+P43140); assay: Displacement of [3H]prazosin from alpha1 adrenergic receptor in rat cerebral cortex by liquid scintillation counting; format: tissue-based
T1 sequence (P15823 whole entry): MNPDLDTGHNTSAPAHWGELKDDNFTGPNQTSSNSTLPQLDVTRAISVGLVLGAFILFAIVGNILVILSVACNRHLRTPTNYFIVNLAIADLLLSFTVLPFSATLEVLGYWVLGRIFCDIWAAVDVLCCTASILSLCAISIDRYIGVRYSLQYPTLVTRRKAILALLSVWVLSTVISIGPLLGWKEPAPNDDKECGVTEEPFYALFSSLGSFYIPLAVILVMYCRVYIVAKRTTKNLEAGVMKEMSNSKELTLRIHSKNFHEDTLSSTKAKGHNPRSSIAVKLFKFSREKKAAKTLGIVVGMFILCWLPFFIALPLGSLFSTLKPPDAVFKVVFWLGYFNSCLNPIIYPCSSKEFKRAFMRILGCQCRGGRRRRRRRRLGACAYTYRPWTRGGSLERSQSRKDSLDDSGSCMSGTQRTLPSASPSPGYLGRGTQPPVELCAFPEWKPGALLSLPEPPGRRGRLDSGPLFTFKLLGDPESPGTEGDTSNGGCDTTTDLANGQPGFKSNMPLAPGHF
T1 sequence (P23944 whole entry): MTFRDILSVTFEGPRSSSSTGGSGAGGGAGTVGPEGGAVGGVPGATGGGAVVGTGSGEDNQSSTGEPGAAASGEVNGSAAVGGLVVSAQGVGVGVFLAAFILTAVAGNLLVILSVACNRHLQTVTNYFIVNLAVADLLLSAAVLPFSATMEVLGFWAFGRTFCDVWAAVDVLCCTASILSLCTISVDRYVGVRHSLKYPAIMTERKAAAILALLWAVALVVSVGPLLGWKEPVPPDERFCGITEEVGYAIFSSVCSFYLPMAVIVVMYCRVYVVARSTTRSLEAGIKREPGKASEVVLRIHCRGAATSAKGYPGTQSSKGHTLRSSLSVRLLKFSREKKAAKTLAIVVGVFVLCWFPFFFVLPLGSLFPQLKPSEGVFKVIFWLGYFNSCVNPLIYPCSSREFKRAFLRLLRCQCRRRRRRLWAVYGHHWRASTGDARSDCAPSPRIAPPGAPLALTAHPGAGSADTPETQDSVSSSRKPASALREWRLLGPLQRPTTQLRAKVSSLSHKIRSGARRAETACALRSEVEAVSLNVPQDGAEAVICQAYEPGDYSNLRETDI
T1 sequence (P43140 whole entry): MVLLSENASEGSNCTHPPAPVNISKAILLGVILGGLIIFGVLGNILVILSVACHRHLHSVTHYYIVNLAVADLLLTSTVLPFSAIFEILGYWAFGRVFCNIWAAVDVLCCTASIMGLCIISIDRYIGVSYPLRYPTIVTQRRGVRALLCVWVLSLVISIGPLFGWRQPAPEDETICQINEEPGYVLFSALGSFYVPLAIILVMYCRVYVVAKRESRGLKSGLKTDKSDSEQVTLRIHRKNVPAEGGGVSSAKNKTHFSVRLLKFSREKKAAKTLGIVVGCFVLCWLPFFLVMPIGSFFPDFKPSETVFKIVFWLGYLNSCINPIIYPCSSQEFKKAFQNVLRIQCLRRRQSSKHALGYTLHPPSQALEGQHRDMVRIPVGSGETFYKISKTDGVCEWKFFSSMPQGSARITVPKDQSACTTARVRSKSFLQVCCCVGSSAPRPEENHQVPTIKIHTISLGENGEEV

[9] = tested on: Mus musculus; assay: Neurotoxicity in CF1 mouse at 100 mg/kg, ip after 0.5 hrs by rotarod test; format: toxicity, organism-based; design: dose 100 mg/kg, route intraperitoneal; details: in vivo
[10] = tested on: Rattus norvegicus; assay: Hypotensive activity in normotensive Wistar rat assessed as reduction in diastolic blood pressure at 10 mg/kg, iv; format: functional, Artery; design: scale not given: the % may be the effect or the level left
[11] = tested on: Mus musculus; assay: Anticonvulsant activity in CF1 mouse assessed as inhibition of subcutaneous pentylenetetrazole-induced seizures; format: functional, organism-based
[12] = biological target: Beta-1 adrenergic receptor (Rattus norvegicus, UniProt P18090); assay: biochemical
Description: Displacement of [3H]CGP12177 from beta-1 adrenergic receptor in rat cerebral cortex by liquid scintillation counting

[13] = tested on: Mus musculus; assay: Anticonvulsant activity in CF1 mouse assessed as inhibition of maximal electroshock-induced seizures at 30 mg/kg, ip after 4 hrs; format: functional, organism-based; design: dose 30 mg/kg
[14] = tested on: Mus musculus; assay: Neurotoxicity in CF1 mouse at 30 mg/kg, ip after 4 hrs by rotarod test; format: toxicity, organism-based; design: dose 30 mg/kg, route intraperitoneal; details: in vivo
[15] = tested on: Rattus norvegicus; assay: Hypotensive activity in normotensive Wistar rat assessed as reduction in systolic blood pressure at 10 mg/kg, iv; format: functional; design: scale not given: the % may be the effect or the level left
[16] = tested on: Mus musculus; assay: Neurotoxicity in CF1 mouse at 300 mg/kg, ip after 0.5 hrs by rotarod test; format: toxicity, organism-based; design: dose 300 mg/kg, route intraperitoneal; details: in vivo
[17] = tested on: Mus musculus; assay: Anticonvulsant activity in CF1 mouse assessed as inhibition of maximal electroshock-induced seizures at 100 mg/kg, ip after 0.5 hrs; format: functional, organism-based; design: dose 100 mg/kg
[18] = tested on: Rattus norvegicus; assay: Hypotensive activity in normotensive Wistar rat assessed as reduction in blood pressure at 0.625 mg/kg, iv after 60 mins; format: functional, organism-based; design: dose 0.625 mg/kg
[19] = tested on: Mus musculus; assay: Neurotoxicity in CF1 mouse at 300 mg/kg, ip after 4 hrs by rotarod test; format: toxicity, organism-based; design: dose 300 mg/kg, route intraperitoneal; details: in vivo
[20] = tested on: Rattus norvegicus; assay: Cardiotoxicity in Wistar rat assessed as decrease in cardiac beats per minute at 10 mg/kg, iv by ECG; format: toxicity, organism-based, Heart; design: dose 10 mg/kg, route intravenous; scale not given: the % may be the effect or the level left; details: in vivo
[21] = tested on: Rattus norvegicus; assay: Antiarrhythmic activity in anaesthetized Wistar rat assessed as decrease in arrhythmia-induced mortality at 1.25 mg/kg, iv administered 15 mins before adrenaline challenge; format: functional, Heart; design: scale not given: the % may be the effect or the level left
[22] = tested on: Rattus norvegicus; assay: Hypotensive activity in normotensive Wistar rat assessed as reduction in diastolic blood pressure at 1.25 mg/kg, iv; format: functional, Artery; design: scale not given: the % may be the effect or the level left
[23] = tested on: Rattus norvegicus; assay: Hypotensive activity in normotensive Wistar rat assessed as reduction in systolic blood pressure at 1.25 mg/kg, iv; format: functional, Artery; design: scale not given: the % may be the effect or the level left
[24] = tested on: Rattus norvegicus; assay: Cardiotoxicity in Wistar rat assessed as prolongation of QT interval at 10 mg/kg, iv by ECG; format: toxicity, organism-based; design: dose 10 mg/kg, route intravenous; details: in vivo
[25] = tested on: Rattus norvegicus; assay: Cardiotoxicity in Wistar rat assessed as decrease in cardiac beats per minute at 5 mg/kg, iv by ECG; format: toxicity, organism-based, Heart; design: dose 5 mg/kg, route intravenous; scale not given: the % may be the effect or the level left; details: in vivo
[26] = tested on: Rattus norvegicus; assay: Hypotensive activity in normotensive Wistar rat assessed as reduction in diastolic blood pressure at 2.5 mg/kg, iv; format: functional, organism-based; design: dose 2.5 mg/kg; details: Artery
[27] = tested on: Rattus norvegicus; assay: Hypotensive activity in normotensive Wistar rat assessed as reduction in systolic blood pressure at 5 mg/kg, iv; format: functional, Artery; design: scale not given: the % may be the effect or the level left
[28] = tested on: Rattus norvegicus; assay: Hypotensive activity in normotensive Wistar rat assessed as reduction in diastolic blood pressure at 5 mg/kg, iv; format: functional, Artery; design: scale not given: the % may be the effect or the level left
[29] = tested on: Rattus norvegicus; assay: Cardiotoxicity in Wistar rat assessed as prolongation of PQ interval at 10 mg/kg, iv by ECG; format: toxicity, organism-based; design: dose 10 mg/kg, route intravenous; details: in vivo
[30] = tested on: Rattus norvegicus; assay: Hypotensive activity in normotensive Wistar rat assessed as reduction in blood pressure at 10 mg/kg, iv after 60 mins; format: functional, organism-based; design: dose 10 mg/kg
[31] = tested on: Rattus norvegicus; assay: Cardiotoxicity in Wistar rat assessed as prolongation of PQ interval at 5 mg/kg, iv by ECG; format: toxicity, organism-based; design: dose 5 mg/kg, route intravenous; details: in vivo

Chain of Beta-1 adrenergic receptor (P18090 whole entry): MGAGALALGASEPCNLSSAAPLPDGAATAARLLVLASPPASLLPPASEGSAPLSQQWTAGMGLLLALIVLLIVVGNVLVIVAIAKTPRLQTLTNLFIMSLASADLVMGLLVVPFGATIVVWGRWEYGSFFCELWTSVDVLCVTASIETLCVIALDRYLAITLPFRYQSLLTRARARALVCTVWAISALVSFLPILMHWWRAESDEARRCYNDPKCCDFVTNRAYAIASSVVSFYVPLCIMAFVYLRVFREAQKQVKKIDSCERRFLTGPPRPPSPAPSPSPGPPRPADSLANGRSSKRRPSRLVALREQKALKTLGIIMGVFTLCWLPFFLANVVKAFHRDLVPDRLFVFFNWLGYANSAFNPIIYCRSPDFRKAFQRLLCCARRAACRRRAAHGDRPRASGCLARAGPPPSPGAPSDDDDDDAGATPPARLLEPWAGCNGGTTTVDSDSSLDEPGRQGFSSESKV

Ki [8]	Ki [12]	Structure (SMILES)	Activity [1]	Activity [2]	Activity [3]	Activity [4]	Activity [5]	Activity [6]	Activity [7]	Activity [9]	Activity [11]	Activity [13]	Activity [14]	Activity [16]	Activity [17]	Activity [19]	ED50 [7]	Activity [20]	further results
4.9 µM	30.9 µM	C=CCNCC(O)COc1ccc2oc3ccccc3c(=O)c2c1.Cl (stereo not drawn)	inactive	Non-toxic	inactive	Active	Active	Non-toxic	Active	Non-toxic	inactive	inactive	Non-toxic	Toxic	–	–	–	–	Activity [10]: 11%; Activity [15]: 10%
20.6 µM	0.047 µM	CC(CO)(CO)NCC(O)COc1cccc2c(=O)c3ccc(Cl)cc3oc12.Cl (stereo not drawn)	inactive	Non-toxic	inactive	inactive	inactive	Non-toxic	Active	Non-toxic	inactive	inactive	–	Non-toxic	inactive	–	–	–	Activity [25]: 21%; Activity [26]: inactive
7.3 µM	0.084 µM	C=CCNCC(O)COc1cccc2c(=O)c3ccccc3oc12.Cl (stereo not drawn)	inactive	Non-toxic	inactive	inactive	inactive	–	Active	–	inactive	inactive	Non-toxic	50%	inactive	Non-toxic	–	24%	Activity [27]: 9%; Activity [28]: 11%; Activity [24]: 17%
–	–	CC(C)NCC(O)COc1cccc2ccccc12 (stereo not drawn) [PROPRANOLOL]	–	–	–	–	–	–	–	–	–	–	–	–	–	–	1.05 mg/kg	–	–
8.7 µM	2.6 µM	CC(C)(CO)NCCCOc1cccc2c(=O)c3ccccc3oc12.Cl	inactive	Non-toxic	inactive	inactive	inactive	Non-toxic	Active	Non-toxic	inactive	inactive	Non-toxic	25%	inactive	Non-toxic	–	15%	Activity [29]: Toxic; Activity [30]: Active
4.6 µM	7.7 µM	C=CCNCCCOc1cccc2c(=O)c3ccccc3oc12.Cl	inactive	Non-toxic	inactive	–	–	Non-toxic	Active	–	inactive	inactive	Non-toxic	Toxic	inactive	–	–	20%	Activity [29]: Toxic
8.1 µM	44.4 µM	C=CCNCC(O)COc1ccc2c(=O)c3ccccc3oc2c1.Cl (stereo not drawn)	inactive	Non-toxic	inactive	Active	Active	Non-toxic	Active	Non-toxic	inactive	inactive	Non-toxic	Toxic	–	Non-toxic	–	–	Activity [30]: Active

Structure (SMILES)	Ki [8]	Ki [12]	Activity [1]	Activity [2]	Activity [3]	Activity [4]	Activity [5]	Activity [6]	Activity [7]	Activity [9]	Activity [11]	Activity [13]	Activity [14]	Activity [16]	Activity [17]	Activity [19]	ED50 [7]	Activity [20]	further results
CC(C)(CO)NCC(O)COc1cccc2c(=O)c3ccc(Cl)cc3oc12.Cl (stereo not drawn)	5.6 µM	0.011 µM	inactive	–	inactive	inactive	inactive	–	–	–	inactive	inactive	Non-toxic	Toxic	inactive	Toxic	2.46 mg/kg	30%	Activity [18]: Active; Activity [21]: 60%; Activity [22]: 19%; Activity [23]: 17%; Activity [24]: 13%
CC(CO)(CO)NCC(O)COc1cccc2c(=O)c3ccccc3oc12.Cl (stereo not drawn)	49.8 µM	0.004 µM	inactive	Non-toxic	inactive	inactive	inactive	Non-toxic	–	Non-toxic	inactive	inactive	Non-toxic	25%	inactive	Non-toxic	1.75 mg/kg	–	Activity [31]: Toxic; Activity [25]: 13%; Activity [26]: inactive

Reference: ChEMBL document CHEMBL1143364, “Preliminary evaluation of pharmacological properties of some xanthone derivatives” (Bioorg Med Chem, 2009)
